# Measured values: ChEMBL document CHEMBL1127467, “Molecular modeling studies of some choline acetyltransferase inhibitors” (J Med Chem, 1994)
# Target: T1, Choline O-acetyltransferase (Homo sapiens, UniProt P28329)
# T1 sequence (P28329 whole entry): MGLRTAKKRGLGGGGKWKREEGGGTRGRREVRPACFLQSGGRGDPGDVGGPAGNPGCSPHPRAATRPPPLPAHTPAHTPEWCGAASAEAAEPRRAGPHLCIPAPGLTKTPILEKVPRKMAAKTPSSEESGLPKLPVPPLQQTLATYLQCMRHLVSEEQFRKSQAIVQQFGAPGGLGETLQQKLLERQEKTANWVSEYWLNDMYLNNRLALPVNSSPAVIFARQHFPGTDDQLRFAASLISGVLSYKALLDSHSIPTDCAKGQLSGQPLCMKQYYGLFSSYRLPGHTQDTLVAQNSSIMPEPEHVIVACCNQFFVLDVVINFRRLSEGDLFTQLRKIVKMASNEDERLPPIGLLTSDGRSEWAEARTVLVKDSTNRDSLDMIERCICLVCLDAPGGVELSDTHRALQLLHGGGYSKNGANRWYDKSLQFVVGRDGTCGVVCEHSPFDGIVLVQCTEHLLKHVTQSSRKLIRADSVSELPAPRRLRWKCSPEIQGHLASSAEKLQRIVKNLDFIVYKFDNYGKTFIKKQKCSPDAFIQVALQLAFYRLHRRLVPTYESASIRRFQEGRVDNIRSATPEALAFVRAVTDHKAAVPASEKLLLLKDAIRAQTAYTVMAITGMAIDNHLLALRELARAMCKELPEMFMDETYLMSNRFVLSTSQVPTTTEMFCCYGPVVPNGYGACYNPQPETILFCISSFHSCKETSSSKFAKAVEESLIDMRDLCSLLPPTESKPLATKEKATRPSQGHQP
# Assay: Inhibition of Choline Acetyltransferase
# Conditions: read-out: I50
row,SMILES,IC50
1,C[n+]1ccc(/C=C/c2cc3ccccc3c3ccccc23)cc1,> 100 µM
2,Cc1c[n+](C)ccc1/C=C/c1ccccc1,5 µM
3,COc1ccc(/C=C/c2cc[n+](C)cc2)c2ccccc12,> 100 µM
4,C/C(=C\c1ccccc1)c1cc[n+](C)cc1,> 100 µM
5,C[n+]1ccc(/N=C/c2cccc3ccccc23)cc1,> 100 µM
6,C[n+]1ccc(/C=N/c2cccc3ccccc23)cc1,1.5 µM

# Second part, the compound after the results:
row,IC50,SMILES
1,0.4 µM,C[n+]1ccc(/C=C/c2cccc3ccccc23)cc1
2,13.5 µM,C[n+]1ccc(/C=C/c2ccccc2)cc1
3,2.3 µM,C[n+]1ccc(/C=C/c2cccc(Cl)c2)cc1
4,19 µM,CCc1c[n+](C)ccc1/C=C/c1ccccc1
5,3.5 µM,C[n+]1ccc(/C=C/c2ccccc2)c2ccccc21
6,28 µM,C[n+]1ccc(/C=C/c2ccccc2Cl)cc1
7,0.4 µM,Cc1c[n+](C)ccc1/C=C/c1cccc2ccccc12
